This passage reports IC50 results from patent US20170253607A1, “LONG-ACTING HIV PROTEASE INHIBITOR” (Shionogi & Co., Ltd., priority 2014, published 2017).

SMILES strings stand for the structures.

This experiment concerns the target HIV-1 PR (Human immunodeficiency virus type 1 group M subtype B, UniProt P04585). The experiment is described as follows: HIV-protease inhibitory activity assay (FRET peptide substrate). It counts as biochemical. The following applies: Test Example 1. The method, then:
Test Example 1: HIV-Protease Inhibitory Activity Assay
The HIV-1 PR assay was performed by using a FRET (Fluorescence Resonance Energy Transfer) peptide substrate (AnaSpec, Inc., Fremont, Calif.). Initially in the intact FRET peptide, the fluorescence of HiLyte Fluor 488 is quenched by QXL 520. Upon substrate cleavage by PR, the fluorescence is recovered and can be monitored. Test compounds diluted in DMSO was plated to the wells of 384-well plate. Then, mixed with assay buffer (0.1 mol/L NaAc containing 0.5 mol/L NaCl, 1 mmol/L EDTA, 1 mmol/L DTT, and 0.05% Tween 20, pH 4.8) in the presence or absence of HIV-1 PR (0.83 ng), and let it stand for 5 minutes at room temperature. Background fluorescence intensity was measured and let it stand for another 15 minutes at room temperature. The enzyme reaction was started by adding substrate diluted in assay buffer at final concentration of 2 μmol/L, and let it stand for 60 minutes at room temperature. After 60 minutes, the fluorescence intensity was measured. Fluorescence intensity was measured with excitation and emission wavelengths of 485 nm and 535 nm, respectively.
IC50 values were determined using non-linear regression four-parameter logistic equation, y=A+((B−A)/(1+((C/x)̂D))) where A=minimum inhibition, B=maximum inhibition, C=log IC50, D=slope factor, x=concentration of compound and y=% inhibition.
As for `COc1ccc(S(=O)(=O)N(CC(C)C)CC(O)C(Cc2ccc(NCc3cc(OC)cc(-c4sc5c(c4C(=O)O)CC(C)(C)CC5)c3OC)cc2)NC(=O)OC2COC3(C)OCCC23)cc1` (stereo not drawn) [Compound I-553], the IC50 turned out to be 1.92 nM.
`COc1ccc(S(=O)(=O)N(CC(C)C)CC(O)C(Cc2ccc(OCc3ccccc3-c3ccc4c(C(=O)O)csc4c3)cc2)NC(=O)OC2COC3(C)OCCC23)cc1` (stereo not drawn) [Compound I-179]: half-maximal inhibition (IC50) required 1.1 nM.
With `CC(C)CN(CC(O)C(Cc1ccc(OCc2ccc3ccccc3c2C(=O)N(C)C)cc1)NC(=O)OC1COC2(C)OCCC12)S(=O)(=O)c1ccc2ncsc2c1` (stereo not drawn) [Compound I-163], the IC50 is 1.1 nM.
Next, `COc1ccc(S(=O)(=O)N(CC(C)C)CC(O)C(Cc2ccc(NC3CCCc4c(-c5sc6c(c5C(=O)O)CC(C)(C)CC6)cccc43)cc2)NC(=O)OC2COC3(C)OCCC23)cc1` (stereo not drawn) [Compound I-711]: 8.1 nM; `COc1ccc(S(=O)(=O)N(CC(C)C)C[C@@H](O)[C@H](Cc2ccc(C#Cc3sc4c(c3C(=O)O)CC(C)(C)CC4)cc2)NC(=O)O[C@H]2CO[C@@]3(C)OCC[C@@H]23)cc1` [Compound I-11]: 1.4 nM.
As for `COc1ccc(S(=O)(=O)N(CC(C)C)CC(O)C(Cc2ccc(NCc3c(C)c(C)c(-c4sc5c(c4C(=O)O)CC(C)(C)CC5)c(C)c3C)cc2)NC(=O)OC2COC3(C)OCCC23)cc1` (stereo not drawn) [Compound I-535], the IC50 came to 43.1 nM.
In turn, `COC(=O)c1ccc(CNc2ccc(CC(NC(=O)OC3COC4(C)OCCC34)C(O)CN(CC(C)C)S(=O)(=O)c3ccc(OC)cc3)cc2)c(-c2sc3c(c2C(=O)O)CC(C)(C)CC3)c1` (stereo not drawn) [Compound I-408] gave an IC50 of 1.8 nM.
`COc1ccc(S(=O)(=O)N(CC(C)C)CC(O)C(Cc2ccc(NCc3ccc4scc(C(=O)O)c4c3)cc2)NC(=O)OC2COC3(C)OCCC23)cc1` (stereo not drawn) [Compound I-314] returned an IC50 of 1.93 nM.
Next, `COc1ccc(S(=O)(=O)N(CC(C)C)CC(O)C(Cc2ccc(N(C)Cc3cc(N4CC(C)(C)C4=O)ccc3-c3sc4c(c3C(=O)O)CC(C)(C)CC4)cc2)NC(=O)OC2COC3(C)OCCC23)cc1` (stereo not drawn) [Compound I-730]: 2.84 nM.
The compound `COc1ccc(S(=O)(=O)N(CC(C)C)CC(O)C(Cc2ccc(OCc3ccccc3-n3nc4c(c3C(=O)O)CC3(CCCC3)CC4)cc2)NC(=O)OC2COC3(C)OCCC23)cc1` (stereo not drawn) [Compound I-53] returned an IC50 of 0.83 nM.
Next, `COc1ccc(S(=O)(=O)N(CC(C)C)CC(O)C(Cc2ccc(OCC3COCC3c3sc4c(c3C(=O)O)CC(C)(C)CC4)cc2)NC(=O)OC2COC3(C)OCCC23)cc1` (stereo not drawn) [Compound I-394]: 1.64 nM.
In the case of `COc1ccc(S(=O)(=O)N(CC(C)C)CC(O)C(Cc2ccc(N3CCC(Cc4ccccc4-c4sc5c(c4C(=O)O)CC(C)(C)CC5)C3)cc2)NC(=O)OC2COC3(C)OCCC23)cc1` (stereo not drawn) [Compound I-667], the IC50 came out at 7.95 nM.
Compound `COc1ccc(S(=O)(=O)N(CC(C)C)CC(O)C(Cc2ccc(N(C)Cc3cc(-c4ccc5ccccc5c4)ccc3-c3sc4c(c3C(=O)O)CC(C)(C)CC4)cc2)NC(=O)OC2COC3(C)OCCC23)cc1` (stereo not drawn) [Compound I-692] showed an IC50 of 26.1 nM.
On to `CC(C)CN(CC(O)C(Cc1ccc(OCc2cc(-c3ccc(F)cc3F)ccc2C(N)=O)cc1)NC(=O)OC1COC2(C)OCCC12)S(=O)(=O)c1ccc2ncsc2c1` (stereo not drawn) [Compound I-62], for which the IC50 was found to be 0.82 nM.
`COc1ccc(S(=O)(=O)N(CC(C)C)CC(O)C(Cc2ccc(OCc3ccccc3-c3sc4c(c3C(=O)O)CCC(=O)C4)cc2)NC(=O)OC2COC3OCCC23)cc1` (stereo not drawn) [Compound I-833] gave an IC50 of 1.54 nM.
The compound `COc1ccc(S(=O)(=O)N(CC(C)C)CC(O)C(Cc2ccc(NCc3cccc(-c4sc5c(c4C(=O)O)CC(C)(C)CC5)c3Cl)cc2)NC(=O)OC2COC3(C)OCCC23)cc1` (stereo not drawn) [Compound I-544] displayed an IC50 of 3.65 nM.
Next, `COc1ccc(S(=O)(=O)N(CC(C)C)CC(O)C(Cc2ccc(OCC3=C(c4sc5c(c4C(=O)O)CC(C)(C)CC5)COC3)cc2)NC(=O)OC2COC3(C)OCCC23)cc1` (stereo not drawn) [Compound I-385]: 1.25 nM; `COc1ccc(S(=O)(=O)N(CC(C)C)C[C@@H](O)[C@H](Cc2ccc(OCc3ccccc3-c3sc4c(c3C(N)=O)CC(C)(C)CC4)cc2)NC(=O)O[C@H]2CO[C@@]3(C)OCC[C@@H]23)cc1` [Compound I-20]: 1.77 nM; `COc1ccc(S(=O)(=O)N(CC(C)C)CC(O)C(Cc2ccc(NCc3cc(OC)ccc3C(=O)Nc3sc4c(c3C(=O)O)CC(C)(C)CC4)cc2)NC(=O)OC2COC3(C)OCCC23)cc1` (stereo not drawn) [Compound I-732]: 3.26 nM.
For `COc1ccc(S(=O)(=O)N(CC(C)C)CC(O)C(Cc2ccc(N(C)Cc3cc(Cl)ccc3C(=O)Nc3sc4c(c3C(=O)O)CC(C)(C)CC4)cc2)NC(=O)OC2COC3(C)OCCC23)cc1` (stereo not drawn) [Compound I-658] the value was 13.7 nM; for `COc1ccc(S(=O)(=O)N(CC(C)C)CC(O)C(Cc2ccc(N3CCc4c(-c5sc6c(c5C(=O)O)CC(C)(C)CC6)cccc43)cc2)NC(=O)OC2COC3(C)OCCC23)cc1` (stereo not drawn) [Compound I-300], 4.78 nM.
The compound `COC(=O)NC(C(=O)NC(Cc1ccccc1)C(O)CN(Cc1ccc(-c2sc3c(c2C(=O)O)CC(C)(C)CC3)cc1)NC(=O)C(NC(=O)OC)C(C)(C)C)C(C)(C)C` (stereo not drawn) [Compound I-901] returned an IC50 of 2.34 nM.
As to `COc1ccc(S(=O)(=O)N(CC(C)C)CC(O)C(Cc2ccc(OCc3ccccc3-c3ccc4c(c3C(=O)O)CC(C)(C)CC4)cc2)NC(=O)OC2COC3(C)OCCC23)cc1` (stereo not drawn) [Compound I-40], the IC50 is 1.9 nM.
As to `COc1ccc(S(=O)(=O)N(CC(C)C)CC(O)C(Cc2ccc(NCc3ccc(-c4sc5c(c4C(=O)O)CC(C)(C)CC5)o3)cc2)NC(=O)OC2COC3(C)OCCC23)cc1` (stereo not drawn) [Compound I-288], the IC50 amounted to 2.19 nM.
Next, `COc1ccc(S(=O)(=O)N(CC(C)C)CC(O)C(Cc2ccc(NCC3=C(c4sc5c(c4C(=O)O)CC(C)(C)CC5)C4CC(C3)C4(C)C)cc2)NC(=O)OC2COC3(C)OCCC23)cc1` (stereo not drawn) [Compound I-626]: 4.58 nM.
In turn, `COc1ccc(S(=O)(=O)N(CC(C)C)CC(O)C(Cc2ccc(NCc3ccc(-c4c(C(=O)O)sc5c4CC(C)(C)CC5)cc3)cc2)NC(=O)OC2COC3(C)OCCC23)cc1` (stereo not drawn) [Compound I-356] gave a half-inhibitory concentration (IC50) of 3.3 nM.
For `COc1ccc(S(=O)(=O)N(CC(C)C)CC(O)C(Cc2ccc(NCC3CC(C)(C)CCC3c3sc4c(c3C(=O)O)CC(C)(C)CC4)cc2)NC(=O)OC2COC3(C)OCCC23)cc1` (stereo not drawn) [Compound I-764], half-maximal inhibition (IC50) required 2.81 nM.
Compound `COc1ccc(S(=O)(=O)N(CC(C)C)CC(O)C(Cc2ccc(NCc3cc(F)cc(-c4sc5c(c4C(=O)O)CC(C)(C)CC5)c3)cc2)NC(=O)OC2COC3(C)OCCC23)cc1` (stereo not drawn) [Compound I-296] showed an IC50 of 1.91 nM.
For `COc1ccc(S(=O)(=O)N(CC(C)C)CC(O)C(Cc2ccc(OCc3ccccc3-n3nc(C(=O)O)c4c3CCC(C)(C)C4)cc2)NC(=O)OC2COC3OCCC23)cc1` (stereo not drawn) [Compound I-837], the midpoint of inhibition, the IC50, lay at 0.82 nM.
Next, `COc1ccc(S(=O)(=O)N(CC(C)C)CC(O)C(Cc2ccc(OC3CC4CCC(C3)N4c3ccc(C#N)cc3-c3sc4c(c3C(=O)O)CC(C)(C)CC4)cc2)NC(=O)OC2COC3(C)OCCC23)cc1` (stereo not drawn) [Compound I-324]: 19.6 nM; `COc1ccc(S(=O)(=O)N(CC(C)C)CC(O)C(Cc2ccc(N(C)C3CCc4c(-c5sc6c(c5C(=O)O)CC(C)(C)CC6)cccc43)cc2)NC(=O)OC2COC3(C)OCCC23)cc1` (stereo not drawn) [Compound I-709]: 7.2 nM.
`CC1(C)CCc2sc(-c3ccc(C(F)(F)F)cc3CNc3ccc(CC(NC(=O)OC4COC5OCCC45)C(O)CN(CC4CCC4)S(=O)(=O)c4ccc5ncsc5c4)cc3)c(C(=O)O)c2C1` (stereo not drawn) [Compound I-872] returned an IC50 of 4.99 nM.
For `COc1ccc(S(=O)(=O)N(CC(C)C)CC(O)C(Cc2ccc(NCc3cncc(-c4sc5c(c4C(=O)O)CC(C)(C)CC5)c3)cc2)NC(=O)OC2COC3(C)OCCC23)cc1` (stereo not drawn) [Compound I-557] the value was 1.67 nM; for `COc1ccc(S(=O)(=O)N(CC(C)C)CC(O)C(Cc2ccc(OC3CC(N(C)c4ccccc4-c4sc5c(c4C(=O)O)CC(C)(C)CC5)C3)cc2)NC(=O)OC2COC3(C)OCCC23)cc1` (stereo not drawn) [Compound I-364], 5.39 nM; for `COc1ccc(S(=O)(=O)N(CC(C)C)CC(O)C(Cc2ccc(NCc3ccc(CCC(=O)Nc4sc5c(c4C(=O)O)CC(C)(C)CC5)cc3)cc2)NC(=O)OC2COC3(C)OCCC23)cc1` (stereo not drawn) [Compound I-439], 3.45 nM.
Next, `COc1ccc(S(=O)(=O)N(CC(C)C)CC(O)C(Cc2ccc(N(C)C(=O)Nc3sc4c(c3C(=O)O)CC(C)(C)CC4)cc2)NC(=O)OC2COC3(C)OCCC23)cc1` (stereo not drawn) [Compound I-220]: 2.08 nM; `COc1ccc(S(=O)(=O)N(CC(C)C)CC(O)C(Cc2ccc(N(C)CC3CC(C)(C)CCC3c3sc4c(c3C(=O)O)CC(C)(C)CC4)cc2)NC(=O)OC2COC3(C)OCCC23)cc1` (stereo not drawn) [Compound I-770]: 5.56 nM.
Take `COc1ccc(S(=O)(=O)N(CC(C)C)CC(O)C(Cc2ccc(OCc3cnn(-c4ccccc4)c3-c3sc4c(c3C(=O)O)CC(C)(C)CC4)cc2)NC(=O)OC2COC3(C)OCCC23)cc1` (stereo not drawn) [Compound I-185]: it took 1.71 nM to reach half-maximal inhibition (IC50).
Consider `COc1ccc(S(=O)(=O)N(CC(C)C)CC(O)C(Cc2ccc(OCC3CCC(Nc4ccc(C#N)cc4-c4sc5c(c4C(=O)O)CC(C)(C)CC5)CC3)cc2)NC(=O)OC2COC3(C)OCCC23)cc1` (stereo not drawn) [Compound I-330], for which the IC50 worked out at 40.6 nM.
